According to patent publication US20070128217A1 (priority 2003, published 2007):

Columns and labels:
[1] = test system: antibodies in sera from SARS patients (sera 1a, 1b, 2, 6, 37, 62, London, SARS-yellow, SARS-green); format: binding, human; parameters: Binding of serum 6 to linear peptides of protein X1 of SARS-CoV Urbani / Binding of serum 37 to linear peptides of protein X1 of SARS-CoV Urbani / Binding of serum 6 to looped/cyclic peptide (PEPSCAN-ELISA) / Binding of serum 37 to looped/cyclic peptide (PEPSCAN-ELISA) / Binding of serum 37 to looped/cyclic peptides of protein X1 of SARS-CoV Urbani / Binding of serum 6 to linear peptides of protein X2 / Binding of serum 37 to linear peptides of protein X2 / Binding of serum 37 to looped/cyclic peptides of protein X2 of SARS-CoV Urbani / Binding of serum 6 to linear peptides of protein M of SARS-CoV Urbani / Binding of serum 37 to linear peptides of protein M of SARS-CoV Urbani / Binding of serum 6 to looped/cyclic peptides of protein M of SARS-CoV Urbani / Binding of serum 37 to looped/cyclic peptides of protein M of SARS-CoV Urbani / Binding of serum 6 to linear peptides of protein X3 of SARS-CoV Urbani / Binding of serum 37 to linear peptides of protein X3 of SARS-CoV Urbani / Binding of serum 37 to looped/cyclic peptides of protein X3 of SARS-CoV Urbani / Binding of serum 6 to linear peptides of protein X4 of SARS-CoV Urbani / Binding of serum 37 to linear peptides of protein X4 of SARS-CoV Urbani / Binding of serum 37 to looped/cyclic peptides of protein X4 of SARS-CoV Urbani / Binding of serum 6 to linear peptides of protein X5 of SARS-CoV Urbani / Binding of serum 37 to linear peptides of protein X5 of SARS-CoV Urbani / Binding of serum 37 to looped/cyclic peptides of protein X5 of SARS-CoV Urbani / Binding of serum 6 to linear peptides of protein N of SARS-CoV Urbani / Binding of serum 37 to linear peptides of protein N of SARS-CoV Urbani / Binding of serum 6 to linear peptide (PEPSCAN-ELISA) / Binding of serum 1a to looped/cyclic peptides of protein N of SARS-CoV Urbani / Binding of serum 1b to looped/cyclic peptides of protein N of SARS-CoV Urbani / Binding of serum 2 to looped/cyclic peptides of protein N of SARS-CoV Urbani / Binding of serum 6 to looped/cyclic peptides of protein N of SARS-CoV Urbani / Binding of serum 37 to looped/cyclic peptides of protein N of SARS-CoV Urbani / Binding of serum 62 to looped/cyclic peptides of protein N of SARS-CoV Urbani / Binding of serum London to looped/cyclic peptides of protein N of SARS-CoV Urbani / Binding of serum SARS-green to looped/cyclic peptides of protein N of SARS-CoV Urbani: unit not given here
[2] = test system: control sera (pooled serum of ten healthy LUMC hospital workers; commercial negative donor pooled serum from the Dutch bloodbank); format: binding, human; parameters: Binding of Control serum LUMC to linear peptides / Binding of Control serum Blood-bank to linear peptides / Binding of Control serum LUMC to looped peptides / Binding of Control Serum Blood-Bank to Looped peptides / Binding of Control serum LUMC to linear peptides of the protein M of SARS-CoV Urbani / Binding of Control serum Blood-bank to linear peptides of the protein M of SARS-CoV Urbani / Binding of Control serum LUMC to looped peptides of the protein M of SARS-CoV Urbani / Binding of Control Serum Blood-Bank to Looped peptides of the protein M of SARS-CoV Urbani: unit not given here
[3] = test system: rabbit serum obtained by immunizing a rabbit with the SARS-CoV strain Frankfurt 1; format: binding; parameters: Binding of a rabbit serum to linear peptides / Binding of a rabbit serum to looped peptides / Rabbit serum linear peptides / Rabbit serum looped peptides / Binding of a rabbit serum to linear peptides of protein N of SARS-CoV Urbani (Rabbit serum linear peptides) / Binding of a rabbit serum to looped/cyclic peptides of protein N of SARS-CoV Urbani (Rabbit serum looped peptides): unit not given here
[4] = test system: recombinant human anti-SARS-CoV antibody 03-018; format: binding; parameters: Binding of antibody 03-018 to linear peptides of the N protein of SARS-CoV Urbani / Binding of antibody 03-018 to looped/cyclic peptides of the N protein of SARS-CoV Urbani: unit not given here

Sequence | Binding of serum 1a to linear peptide (PEPSCAN-ELISA) [1] | Binding of serum 1a to looped/cyclic peptides of protein N of SARS-CoV Urbani [1] | Binding of serum 1b to linear peptide (PEPSCAN-ELISA) [1] | Binding of serum 1b to looped/cyclic peptides of protein N of SARS-CoV Urbani [1] | Binding of serum 2 to linear peptide (PEPSCAN-ELISA) [1] | Binding of serum 2 to looped/cyclic peptides of protein N of SARS-CoV Urbani [1] | Binding of serum 6 to looped/cyclic peptides of protein N of SARS-CoV Urbani [1] | Binding of serum 37 to looped/cyclic peptides of protein N of SARS-CoV Urbani [1] | Binding of serum 62 to looped/cyclic peptides of protein N of SARS-CoV Urbani [1] | Binding of serum London to looped/cyclic peptides of protein N of SARS-CoV Urbani [1] | Binding of serum SARS-green to looped/cyclic peptides of protein N of SARS-CoV Urbani [1] | Binding of serum SARS-yellow to looped/cyclic peptides of protein N of SARS-CoV Urbani [1] | Binding of Control Serum Blood-Bank to Looped peptides [2] | Binding of Control serum Blood-bank to linear peptides [2] | Binding of Control serum LUMC to linear peptides [2] | Binding of Control serum LUMC to looped peptides [2] | Binding of a rabbit serum to linear peptides of protein N of SARS-CoV Urbani (Rabbit serum linear peptides) [3] | Binding of a rabbit serum to looped/cyclic peptides of protein N of SARS-CoV Urbani (Rabbit serum looped peptides) [3] | Binding of antibody 03-018 to linear peptides of the N protein of SARS-CoV Urbani [4] | Binding of antibody 03-018 to looped/cyclic peptides of the N protein of SARS-CoV Urbani [4] | further results
GGETALALLLLDRLN | 0.2 | 0.4 | 0.1 | 0.3 | 0.2 | 0.5 | 0.2 | 0.7 | 0.7 | 0.5 | 0.3 | 0.7 | 0.8 | 0.7 | 0.6 | 0.8 | 0.1 | 0.6 | 0.1 | 0.2 | Binding of serum 6 to linear peptide (PEPSCAN-ELISA) [1]: 0.2; Binding of serum 37 to linear peptide (PEPSCAN-ELISA) [1]: 0.6; Binding of serum 62 to linear peptide (PEPSCAN-ELISA) [1]: 0.6; Binding of serum London to linear peptide (PEPSCAN-ELISA) [1]: 0.4; Binding of serum SARS-green to linear peptide (PEPSCAN-ELISA) [1]: 0.4; Binding of serum SARS-yellow to linear peptide (PEPSCAN-ELISA) [1]: 0.5
GGGETALALLLLDRL | 0.2 | 0.4 | 0.1 | 0.3 | 0.1 | 0.5 | 0.2 | 0.8 | 0.7 | 0.4 | 0.3 | 0.7 | 0.7 | 0.5 | 0.6 | 0.8 | 0.1 | 0.7 | 0.1 | 0.2 | Binding of serum 6 to linear peptide (PEPSCAN-ELISA) [1]: 0.1; Binding of serum 37 to linear peptide (PEPSCAN-ELISA) [1]: 0.7; Binding of serum 62 to linear peptide (PEPSCAN-ELISA) [1]: 0.5; Binding of serum London to linear peptide (PEPSCAN-ELISA) [1]: 0.4; Binding of serum SARS-green to linear peptide (PEPSCAN-ELISA) [1]: 0.2; Binding of serum SARS-yellow to linear peptide (PEPSCAN-ELISA) [1]: 0.6
GGSQASSRSSSRSRG | 0.3 | 0.3 | 0.1 | 0.2 | 0.3 | 0.4 | 0.4 | 0.5 | 0.4 | 0.4 | 0.0 | 0.3 | 0.6 | 0.7 | 0.8 | 0.6 | 0.2 | 0.5 | 0.1 | 0.2 | Binding of serum 6 to linear peptide (PEPSCAN-ELISA) [1]: 0.4; Binding of serum 37 to linear peptide (PEPSCAN-ELISA) [1]: 0.7; Binding of serum 62 to linear peptide (PEPSCAN-ELISA) [1]: 0.7; Binding of serum London to linear peptide (PEPSCAN-ELISA) [1]: 0.5; Binding of serum SARS-green to linear peptide (PEPSCAN-ELISA) [1]: 0.7; Binding of serum SARS-yellow to linear peptide (PEPSCAN-ELISA) [1]: 0.9
GIVWVATEGALNTPK | – | 0.3 | – | 0.1 | – | 0.4 | 0.2 | 0.5 | 0.4 | 0.4 | 0.3 | 0.3 | 0.5 | 1.0 | 1.0 | 0.5 | 0.2 | 0.5 | 0.1 | 0.2 | Binding of serum 1a to linear peptides of protein N of SARS-CoV Urbani [1]: 0.3; Binding of serum 1b to linear peptides of protein N of SARS-CoV Urbani [1]: 0.2; Binding of serum 2 to linear peptides of protein N of SARS-CoV Urbani [1]: 0.5; Binding of serum 6 to linear peptides of protein N of SARS-CoV Urbani [1]: 0.3; Binding of serum 37 to linear peptides of protein N of SARS-CoV Urbani [1]: 0.9; Binding of serum 62 to linear peptides of protein N of SARS-CoV Urbani [1]: 0.9; Binding of serum London to linear peptides of protein N of SARS-CoV Urbani [1]: 0.6; Binding of serum SARS-green to linear peptides of protein N of SARS-CoV Urbani [1]: 1.0; Binding of serum SARS-yellow to linear peptides of protein N of SARS-CoV Urbani [1]: 0.8
